Test results taken from patent US8597904B2, “Pharmaceutical compositions for the treatment of conditions responsive to proteasome inhibition” (priority 2007, dated 2013).

How the values were obtained:
SKOV3 cells = assay: Cytox-Glo cytotoxicity assay; format: cell-based, human; details: SKOV3, 1.0 μM GlbA or 25 μM SylA, 48 hours
Method: (§1) Determination of potential cytotoxic effects by GlbA and/or […] was carried out by using the Cytox-Glo cytotoxicity assay, which measures “dead cell proteases” from cells that have lost membrane integrity. Briefly, cells were treated with a single concentration of compound for 48 hours in a final volume of 100 μl, after which 50 μl of AAF-Glo luminogenic peptide substrate (alanyl-alanyl-phenylalanyl-aminoluciferin) was added to each well and incubated for 15 min at room temperature. The luminescence was measured by a Dynex MLX luminometer to give a reading of cells with damaged membranes. Next, 50 μl of digitonin was added to each well and the samples incubated for 15 minutes at room temperature. Luminescence was measured a second time to determine total cell number. Controls included cells with vehicle only, media, and media with compound.
(§2) SK-N-SH cells were treated with 0.25 μM GlbA or 25 μM SylA and SKOV3 cells were treated with 1.0 μM GlbA or 25 μM SylA. As illustrated in FIGS. 16A and 16B, control cells (treated with DMSO and H2O representing GlbA and SylA controls, respectively) were viable and no cytotoxicity was detected.

ubiquitinated proteins = assay: immunoblot of total ubiquitinated proteins in SK-N-SH cells; format: cell-based, human; details: for increase of ubiquitinated proteins: 24 hours of treatment
Method: As inhibition of the proteasome is expected to result in increased levels of ubiquitinated proteins (Meng, et al. 1999. Proc. Natl. Acad. Sci. U.S.A. 96:10403-10408, which is incorporated herein by reference in its entirety), the effect of syringolin A on total ubiquitinated protein accumulation was analyzed by immunoblot analysis. To do so, SK-N-SH cells were seeded in 6-well cell culture plates at a concentration of 3.8×10^5 cells per ml (1.98 ml per well). After 24 hours, 20 μl of syringolin A (final concentration 25 μM) or cell culture medium (control, C) was added. For time-course experiments, cell treatments were staggered in order to process all samples at the same time after 24 hours. Cell lysates were prepared as previously reported (Wallick, et al. 2005. Oncogene 24:5606-5618, which is incorporated herein by reference in its entirety). Sodium dodecyl sulfate-polyacrylamide gel electrophoresis (SDS-PAGE), electro transfer to PVDF Immobilon-P membranes (Millipore) and antibody incubations were performed according to standard procedures. The primary antibodies used were rabbit whole serum ubiquitin (1:150) (U5379; Sigma), mouse monoclonal tumor suppressor protein p53 (1:250) (se-126; Santa Cruz Biotechnology), and rabbit monoclonal α-tubulin (1:1,500) (11H10; Cell Signaling Technology). Horse radish peroxidase (HRP)-conjugated anti-mouse or anti-rabbit antibodies (1:5,000) were used as secondary antibodies. Membranes were developed using the ECL Plus kit following the manufacturer's protocol (Amersham Biosciences) and exposed to Blue Lite Autorad Film (ISC BioExpress). Membranes were stripped with ECL stripping buffer (62.5 mM Tris-HCL, pH 6.7, 2% SDS, 100 mM β-mercaptoethanol) for 20 min at 55° C. and sequentially re-probed with the next antibody.
To further examine the inhibitory effect, whole cell lysates of GlbA-treated or untreated control cells were analyzed by Western blot and ubiquitinated proteins detected at endogenous levels.

[1] = molecular target: T1, human erythrocyte 20S proteasomes, caspase-like activity (Homo sapiens, UniProt P28072); assay: 20S Proteasome Assay Kit, Z-LLE-AMC substrate; format: biochemical
T1 construct: which contains human erythrocyte 20S proteasomes; purchased BIOMOL International AK-740; host or cells: human erythrocytes
Method: The eukaryotic 20S proteasome contains three catalytic subunits (β1, β2, and (β5) conferring caspase-like, trypsin-like and chymotrypsin-like proteolytic activities, respectively (Borissenko and Groll. 2007. Chem. Rev. 107:687-717, which is incorporated herein by reference in its entirety). Syringolin A was tested as a proteasome inhibitor using the 20S Proteasome Assay Kit for Drug Discovery AK-740 (BIOMOL® International, Plymouth Meeting, PA, USA), which contains human erythrocyte 20S proteasomes, in a 96-well microtiter plate. The fluorogenic substrates Suc-LLVY-AMC, Boc-LRR-AMC, and Z-LLE-AMC (BIOMOL® International) were used to monitor chymotrypsin-like, trypsin-like, and caspase-like activities, respectively. […] The release of free AMC (7-amino-4-methylcoumarin) at 37° C. was monitored with an MWGt Sirius HT fluorescence microplate reader (BIO-TEK® Instruments) equipped with a 360 nm excitation and a 460 nm emission filter. Proteolytic activities were measured as the increase in relative fluorescence units (RFU) over time (FIG. 7A-C). […] The initial velocities (vi) were determined from the time derivative of these curves and plotted versus the corresponding inhibitor concentration ([I]). […] The rate of covalent inhibition (kassociation), which equals kobs/[I] was calculated over the range of inhibitor concentrations given in parentheses in FIG. 7D. […]

SK-N-SH cells = assay: Cytox-Glo cytotoxicity assay; format: cell-based, human; details: for cytotoxicity: 0.25 μM GlbA or 25 μM SylA, 48 hours; for cytotoxicity in the presence of 3-MA: pre-treated with 3-MA
Method: as §1, §2
To determine if autophagy plays a role in GlbA/SylA-induced cell death, levels of cytotoxicity in cells pre-treated with 3-methyladenine (3-MA), an established autophagy inhibitor, were measured using the assay described in Example 12.

CC(C)[C@H](NC(=O)N[C@H](C(=O)N[C@H]1/C=C/CCNC(=O)/C=C/[C@H](C(C)C)NC1=O)C(C)C)C(=O)O [syringolin A]
cytotoxicity (SKOV3 cells): relatively low levels of cytotoxicity | accumulation of ubiquitinated proteins (ubiquitinated proteins; 25 μM, time-course): time-dependent accumulation of ubiquitinated proteins | increase of ubiquitinated proteins (ubiquitinated proteins): 3 fold | inhibition of caspase-like activity ([1]; 37° C., 100 μM Z-LLE-AMC): inhibited | cytotoxicity (SK-N-SH cells): ~30% | cytotoxicity in the presence of 3-MA (SK-N-SH cells): significantly reduced

CCCCCCC/C=C/C=C/C(=O)N[C@H](C(=O)N[C@H]1C[C@@H](O)CCNC(=O)/C=C/[C@H](C)NC1=O)[C@@H](C)O [glidobactin A]
cytotoxicity (SKOV3 cells): relatively low levels of cytotoxicity | increase of ubiquitinated proteins (ubiquitinated proteins): 3 fold | lower concentration of GlbA inducing effects comparable to SylA (ubiquitinated proteins; ubiquitinated proteins): 100 fold | inhibition of caspase-like activity ([1]; concentrations tested up to 20 μM): not inhibited | cytotoxicity (SK-N-SH cells): about 40% | cytotoxicity in the presence of 3-MA (SK-N-SH cells): significantly reduced
